No end group written: not given here.
Key:
[1] = test system: C2C12 cells; assay: STS-induced DNA fragmentation (Cell Death detection ELISA PLUS) in C2C12 cells; format: cell-based, mouse; conditions: murine C2C12 (model for muscle cells); FIG. 5A
Experimental: FIG. 5: In vitro evaluation of the anti-apoptotic activity of CPPs and CPP-conjugates. Workflow and quantitation of DNA fragmentation in (A) C2C12 cells, (B) primary cardiomyocytes, (C) H9c2 cells and (D) NG108-15 cells. Data were normalized to 100% STS. Data shown are the means±SEM, with n≧5. Cells were seeded in 24-well plates and grown overnight. The next day, the cells were incubated with STS alone or with STS+1 μM peptide (in OPTI-MEM) (OPTI-MEM® is a modification of Eagle's Minimum Essential Media, buffered with HEPES and sodium bicarbonate, and supplemented with hypoxanthine, thymidine, sodium pyruvate, L-glutamine, trace elements, and growth factors) (STS concentration and incubation time for each cells are given in the figure). […] Following the regeneration phase, the cells were lyzed and DNA fragmentation was detected according to manufacturer's instructions (Cell Death detection ELISA^PLUS kit—Roche Diagnostics). […]
Thereafter, the capacity of these peptides to inhibit apoptosis induced by staurosporine was evaluated. Apoptosis was determined using the Cell Death detection ELISA^PLUS kit (Roche) measuring the DNA fragmentation.
The anti-apoptotic effects of the peptides were also analyzed in murine NG118-15 (model for neuronal cells) (FIG. 5D), in murine C2C12 (model for muscle cells) (FIG. 5A) and in rat H9c2 (model for cardiac cells) (FIG. 5C). […]

[2] = target: T1, His-tagged intracellular region of Fas receptor (Homo sapiens, UniProt P25445); assay: SPOT peptide array, enzyme-linked blot with His-tagged Fas; format: binding; conditions: Fas 10 μg/ml; anti-His/anti-mouse-HRP
T1 construct: His-tagged intracellular region of Fas receptor [10 μg/ml]; purchased Sigma
T1 sequence (P25445 191-335 limits assumed): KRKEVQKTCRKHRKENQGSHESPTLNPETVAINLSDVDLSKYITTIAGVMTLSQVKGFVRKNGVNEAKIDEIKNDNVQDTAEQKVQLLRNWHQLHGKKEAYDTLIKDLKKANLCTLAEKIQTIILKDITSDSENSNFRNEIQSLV
Experimental: FIG. 1: Determination of the DAXX epitope by SPOT synthesis. (A) The amino acid sequence of DAXX was dissected in overlapping peptide arrays (pepscan; 15 mer peptides with a shift of 3 amino acids) and analyzed in enzyme-linked blot. […] Incubation conditions: His-tagged intracellular region of Fas receptor [10 μg/ml]; antibodies: anti-His-(mouse) (Sigma H1029; 1:6,000)/anti-mouse-HRP (Calbiochem 401207; 1:2,000), exposure time: 1 minute. (B) Alignment of the human DAXX sequence comprising the 16-mer KKSRKEKKQTGSGPLG (=DAXXp of SEQ ID NO: 5) with the DAXX sequences of other species (mouse, rat, dog (CANFA) and green monkey (CHLAE)).
FIG. 2: Determination of the optimal length of the DAXX epitope (=DAXXp) by SPOT synthesis. (A) The DAXXp-211 and DAXXp-209 peptides (of SEQ ID NO: 2 and SEQ ID NO: 3, respectively) were successively shortened by one amino acid residue at the N-terminus, at the C-terminus and both at the N- and the C-termini, and analyzed using enzyme-linked blot. […] Incubation conditions: His-tagged intracellular region of Fas receptor [10 μg/ml]; antibodies: anti-His-(mouse) (Sigma H1029; 1:6,000)/anti-mouse-HRP (Calbiochem 401207; 1:2,000), exposure time: 1 minute. (B) Alignment of both peptide sequences DAXXp-211 and DAXXp-209; corresponding to the brightest spots, to determine the optimal DAXX peptide sequence.
FIG. 8: Determination of FADDp15 and its anti-apoptotic effect in cardiomyocytes. (A) The protein sequences of FADD were dissected in overlapping peptide arrays (pepscan; 15 mer peptides with a shift of 3 amino acids) and analyzed using enzyme-linked blot. […] (B) The peptide sequence of FADDp-11 (=FADDp15=SEQ ID NO: 9) was successively shortened by one amino acid residue at the C-terminus, the N-terminus, or at both the C-terminus and the N-terminus, and analyzed using enzyme-linked blot. […] The shortest FADD epitope (a 9-mer with sequence KRKLERVQS (=FADDp=SEQ ID NO: 12)) corresponded to spot No. 24. Incubation conditions: His-tagged intracellular region of Fas receptor [10 μg/ml]; antibodies: anti-His-(mouse) (Sigma H1029; 1:6,000)/anti-mouse-HRP (Calbiochem 401207; 1:2,000), exposure time: 1 minute.
The peptides were synthesized on N-modified CAPE-membranes (Bhargava et al, Mol. Recognit, 2002, 15: 145) and prepared by a MultiPep SPOT-robot (INTAVIS Bioanalytical Instruments AG, Cologne, Germany). Array design was performed with the aid of the in-house software LISA 1.71. The synthesis started with spot definition using a standard protocol [Frank, Tetrahedron, 1992, 48: 9217), followed by the coupling of a solution of Fmoc-cysteine-(Trt)-Opfp (0.3M) in N-methylpyrolidone (NMP) and Fmoc-alanine-Opfp (double coupling, 15 min reaction each). After Fmoc cleavage with piperidine in DMF (20%), 4-hydroxymethylphenoxyacetic acid (HMPA) dissolved in dimethylformamide (DMF, 0.6M solution) and activated with EEDQ (1.1 equiv) was added, and samples were directly spotted on the membrane (4× coupling, 15 min reaction each). The membrane was acetylated with acetic anhydride in DMF (2%), washed with DMF (5×3 min), ethanol (2×3 min), and diethyl ether (2×3 min), and finally air dried. Solutions of Fmoc-amino acid-OH (0.4M) activated with 1,1′-carbonyldiimidazole (CDI, 3 equiv) in DMF were spotted on the membrane (4× coupling, 15 min reaction time each). Proline, tyrosine, and glutamine were activated with 1,1′-carbonyldi(1,2,4-triazole) (CDT). The Fmoc group was removed from the spots, and the peptide sequences were completed using the standard SPOT synthesis protocol (Frank, Tetrahedron, 1992, 48: 9217) followed by a N-terminal tag with β-alanine.
The primary sequence of the DAXX protein (SEQ ID NO: 1) was dissected in overlapping 15 mer peptides (3 amino acids shift) and all the peptides (243 peptides) were synthesized on cellulose membrane by SPOT synthesis as described above. The peptide library was incubated with the His-tagged intra-cellular region of the Fas receptor (Sigma). […]

Substance	reduction in DNA fragmentation [1] [%]	interaction with the Fas receptor / signal intensity of the spot [2]
GRKKRRQRRRPPQKKSRKEKKQTGSGPLG-NH2 [Tat-DAXXp, GRKKRRQRRRPPQ-KKSRKEKKQTGSGPLG-NH2]	24	–
KKSRKEKKQTGSGPLG-NH2 [DAXXp, KKSRKEKKQTGSGPLG-NH2]	–	interact with the Fas receptor
